Laboratory results reported in US20260053799A1, “COMPOUNDS FOR TREATING CANCER” (EVEXTA BIO, priority 2022, published 2026).
Entries after “also recorded” stand apart in the source; their conditions may differ.

Key:
MCF7 tumors = assay: Antitumor efficacy in xenograft model of SCID-CB17 mice implanted with MCF7 cells; format: in vivo; conditions: per os, qd 5 weeks
Procedure: Antitumor efficacy of anticancer compounds in a xenograft model of SCID-CB17 mice implanted with MCF7 cells, and assessment of the substrates phosphorylation.
MCF7 cells are amplified in vitro in complete medium prior implantation. 24h prior cells injection, the mice are implanted with an estrogen pellet (Innovative Research of America at 0.18 mg/pellet).
On the day of injection, cells are harvested, counted thanks to a trypan blue viability dye (acceptability cut-off ≥80% viability), and resuspended in 50:50 PBS:Matrigel at the appropriate concentration. The cells are then injected subcutaneously in the right flank at 5.10^6 cells/mouse in 200 μL PBS:Matrigel within 30 minutes after harvesting, in 120 mice. […]
In order to assess the effectiveness of the compounds on tumorigenesis, tumor volume are measured twice per week for 8 weeks and mice are weighed once per week for 8 weeks.
The sizes of the primary tumors are measured using calipers and the tumor volume (TV) is extrapolated to a sphere using the formula TV=4/3π×r3, by calculating the mean radius from the two measurements. […]

[1] = Machl et al., 2016; cited from earlier work
[2] = Plasma and brain concentration after dosing (blood brain barrier crossing), Table A; format: in vivo; conditions: for Concentration: dose 25 mg/kg, administered orally
From the text: The present disclosure also encompasses the advantageous therapeutic use of a quinazoline carboxamide azetidine compound, preferably of 4-[(S)-2-Azetidin-1-yl-1-(4-chloro-3-trifluoromethyl-phenyl)-ethylamino]-quinazoline-8-carboxylic acid amide (M2698) or a pharmaceutically acceptable polymorph, enantiomer, stereoisomer, salt, solvate or tautomer thereof, for treating a metastasized cancer, e.g., a cancer that has spread to the brain, a bone, a lung, the liver, or the central nervous system.

[3] = test system: ER+ and HER2+breast cancer; conditions: patients, cited from earlier work

Compound | MCF7 tumor growth (tumor volume) (MCF7 tumors; Elacestrant 50 mg/kg/day) | Crosses the blood-brain barrier [1] | Concentration ([2]; Brain) [ng/mL] | Concentration ([2]; Plasma) [ng/mL] | Ability to cross the blood brain barrier ([2]; administered orally at 25 mg/kg of body weight) | Tolerability ([3]; monotherapy and combined with trastuzumab or tamoxifen) | Efficacy of monotherapy ([3]; monotherapy) | MCF7 tumor growth (tumor volume) (MCF7 tumors; M2698 20 mg/kg/day, 20 mg/kg/day)
CCNCCc1ccc(CN(CC)c2cc(OC)ccc2[C@@H]2CCc3cc(O)ccc3C2)cc1 [Elacestrant, (R)-6-(2-(ethyl(4-(2-(ethylamino)ethyl)benzyl)amino)-4-methoxyphenyl)-5,6,7,8-tetrahydronaphthalen-2-ol, reference compound] | weakly inhibited |  |  |  |  |  |  | 
NC(=O)c1cccc2c(N[C@H](CN3CCC3)c3ccc(Cl)c(C(F)(F)F)c3)ncnc12 [M2698, 4-[(S)-2-Azetidin-1-yl-1-(4-chloro-3-trifluoromethyl-phenyl)-ethylamino]-quinazoline-8-carboxylic acid amide] |  | crosses the blood-brain barrier | 4000 | 1600 | able to cross the blood brain barrier | well tolerated | modest | strong antitumor efficacy; also recorded: strongly inhibited tumor growth
